Test results as given in patent US8314110B2, “Compounds for treating mental disorders, and preparation and uses thereof” (priority 2007, dated 2012).

Legend:
[1] = Dissolution of oral sustained-release capsules; format: physicochemical
Description: Granules were obtained by using conventional fluidized bed.
After the coating was dried, the coated granules were filled into hard gelatin capsules, each capsule contain 6 mg of the active ingredient (expressed in the compound [formula (II)]), and the coating degree was 6%. The capsules were subjected to dissolution tests according the method specified in the Pharmacopoeia of the People's Republic of China.

[2] = Dissolution of the oral conventional tablets; format: physicochemical
Description: Tablets were obtained by direct tabletting, and each tablet contained 6 mg of active ingredient (expressed in the compound [formula (II)]).

[3] = Metabolism of the compounds to the active component (compound [formula (II)]) in liver cells; conditions: human liver cells S9, 1 mM NADPH, 37° C., 2 hours; metabolized to the compound [formula (II)]
Description: After the precipitated proteins were removed by centrifugation, the obtained supernatant solution was adjusted to pH of 3 with concentrated potassium phosphate solution, and centrifuged again. The obtained supernatant was directly injected into HPLC for analysis.

[4] = oral administration; cited from earlier work
[5] = Absolute bioavailability, beagle tests of the compound [formula (II)] and its prodrugs; format: in vivo; conditions: iv, dosage equimolar to the prodrug, compound [formula (II)] in blood
Description: Measurement of the Absolute Bioavailability—Beagle Tests of the Compound [Formula (II)] and its Prodrugs, the Compounds 1, 2, 3, 5, 6, 7 and 8
Twenty one beagles weighing about 10 kg were divided into 7 groups, and intragastrically administered the compounds 1, 2, 3, 5, 6, 7 and 8 at a dosage of 9.4 μmol/beagle, respectively. Blood samples were taken at the predetermined time points, and the concentrations of the active metabolite (the compound [formula (II)]) and prodrugs in blood were measured. In the meantime, three beagles weighing about 10 kg were intravenously administered with the compound [formula (II)] at a dosage equimolar to the prodrug, as the control group, and the concentrations of the compound [formula (II)] in blood were measured.
The prodrugs were immediately metabolized almost completely to form the active metabolite in beagle body, the compound [formula (II)] upon being administrated parenterally, and the concentrations of the original compounds were very low (see: FIG. 1C).

| Dissolution percentage of the active ingredient ([1]; dissolution time 2 hours) | Dissolution percentage of the active ingredient ([1]; dissolution time 4 hours) | Dissolution percentage of the active ingredient ([1]; dissolution time 8 hours) | Dissolution percentage of the active ingredient ([1]; dissolution time 12 hours) | Dissolution percentage of the active ingredient ([1]; dissolution time 24 hours) | Dissolution percentage of the active ingredient ([2]; dissolution time 2 hours) | Dissolution percentage of the active ingredient ([2]; dissolution time 4 hours) | Dissolution percentage of the active ingredient ([2]; dissolution time 8 hours) | Metabolic rate (%) [3] | Structure (SMILES) | also measured |
| --- | --- | --- | --- | --- | --- | --- | --- | --- | --- | --- |
| 8.9% | 26% | 60% | 76% | 94% | 35% | 67% | 92% | 89% | Cc1nc2n(c(=O)c1CCN1CCC(c3noc4cc(F)ccc34)CC1)CCCC2OC(=O)c1ccccc1 (stereo not drawn) [Compound 1, 3-{2-[4-(6-fluoro-1,2-benzoisoxazol-3-yl)-1-piperidinyl]-ethyl}-2-methyl-4-oxo-6,7,8,9-tetrahydro-pyrido[1,2-α]pyrimidin-9-yl benzoate] | – |
| – | – | – | – | – | – | – | – | 94% | Cc1nc2n(c(=O)c1CCN1CCC(c3noc4cc(F)ccc34)CC1)CCCC2OC(=O)Oc1ccccc1.Cl (stereo not drawn) [Compound 8, 3-{2-[4-(6-fluoro-1,2-benzoisoxazol-3-yl)-1-piperidinyl]ethyl}-2-methyl-4-oxo-6,7,8,9-tetrahydro-pyrido[1,2-α]pyrimidin-9-yl phenyl carbonate hydrochloride] | – |
| – | – | – | – | – | – | – | – | 95% | CCOC(=O)OC1CCCn2c1nc(C)c(CCN1CCC(c3noc4cc(F)ccc34)CC1)c2=O.Cl (stereo not drawn) [Compound 5, 3-{2-[4-(6-fluoro-1,2-benzoisoxazol-3-yl)-1-piperidinyl]ethyl}-2-methyl-4-oxo-6,7,8,9-tetrahydro-pyrido[1,2-α]pyrimidin-9-yl ethyl carbonate hydrochloride] | – |
| – | – | – | – | – | – | – | – | 78% | Cc1ccc(C(=O)OC2CCCn3c2nc(C)c(CCN2CCC(c4noc5cc(F)ccc45)CC2)c3=O)cc1 (stereo not drawn) [Compound 2, 3-{2-[4-(6-fluoro-1,2-benzoisoxazol-3-yl)-1-piperidinyl]ethyl}-2-methyl-4-oxo-6,7,8,9-tetrahydro-pyrido[1,2-α]pyrimidin-9-yl 4-methylbenzoate] | – |
| – | – | – | – | – | – | – | – | 89% | Cc1nc2n(c(=O)c1CCN1CCC(c3noc4cc(F)ccc34)CC1)CCCC2OC(=O)Oc1ccc([N+](=O)[O-])cc1.Cl (stereo not drawn) [Compound 9, 3-{2-[4-(6-fluoro-1,2-benzoisoxazol-3-yl)-1-piperidinyl]ethyl}-2-methyl-4-oxo-6,7,8,9-tetrahydro-pyrido[1,2-α]pyrimidin-9-yl p-nitrophenyl carbonate hydrochloride] | – |

The remaining lines, values behind:

| Structure (SMILES) | Dissolution percentage of the active ingredient ([1]; dissolution time 2 hours) | Dissolution percentage of the active ingredient ([1]; dissolution time 4 hours) | Dissolution percentage of the active ingredient ([1]; dissolution time 8 hours) | Dissolution percentage of the active ingredient ([1]; dissolution time 12 hours) | Dissolution percentage of the active ingredient ([1]; dissolution time 24 hours) | Dissolution percentage of the active ingredient ([2]; dissolution time 2 hours) | Dissolution percentage of the active ingredient ([2]; dissolution time 4 hours) | Dissolution percentage of the active ingredient ([2]; dissolution time 8 hours) | Metabolic rate (%) [3] | also measured |
| --- | --- | --- | --- | --- | --- | --- | --- | --- | --- | --- |
| CCCCCOC(=O)OC1CCCn2c1nc(C)c(CCN1CCC(c3noc4cc(F)ccc34)CC1)c2=O.Cl.Cl (stereo not drawn) [Compound 7, 3-{2-[4-(6-fluoro-1,2-benzoisoxazol-3-yl)-1-piperidinyl]ethyl}-2-methyl-4-oxo-6,7,8,9-tetrahydro-pyrido[1,2-α]pyrimidin-9-yl n-pentyl carbonate dihydrochloride] | 5.3% | 22% | 41% | 59% | 82% | 45% | 76% | 93% | 93% | – |
| Cc1nc2n(c(=O)c1CCN1CCC(c3noc4cc(F)ccc34)CC1)CCCC2 [Risperidone] | – | – | – | – | – | – | – | – | – | absolute bioavailability [4]: at least 70% |
| Cc1nc2n(c(=O)c1CCN1CCC(c3noc4cc(F)ccc34)CC1)CCCC2OC(=O)OCC(C)C.Cl.Cl (stereo not drawn) [Compound 6, 3-{2-[4-(6-fluoro-1,2-benzoisoxazol-3-yl)-1-piperidinyl]ethyl}-2-methyl-4-oxo-6,7,8,9-tetrahydro-pyrido[1,2-α]pyrimidin-9-yl isobutyl carbonate dihydrochloride] | 8.8% | 19% | 42% | 68% | 89% | 43% | 79% | 98% | 92% | – |
| Cc1nc2n(c(=O)c1CCN1CCC(c3noc4cc(F)ccc34)CC1)CCCC2O (stereo not drawn) [9-hydroxy risperidone, 3-{2-[4-(6-fluoro-benzo[d]isoxazol-3-yl)piperidin-1-yl]-ethyl}-9-hydroxy-2-methyl-6,7,8,9-tetrahydro-pyrido[1,2-α]pyrimidin-4-one] | – | – | – | – | – | – | – | – | – | Cmax ([5]; beagle, dog, 9.4 μmol/beagle): 360 ng/mL; half-life ([5]; beagle, dog, 9.4 μmol/beagle): 2.51 h; AUC [5]: 2422 nghr/ml; absolute bioavailability [4]: 28% |
